molecular target: T1, IRAK3 (Homo sapiens, UniProt Q9Y616); assay: IRAK endogenous HTRF degradation assay (Total-IRAK3 HTRF kit); assay type: cell-based; design: IRAK Endogenous HTRF Degradation Assay; endogenous in cells; details: endogenous IRAK3, overnight incubation; % Dmax = 100 − Ymin
T1 sequence (Q9Y616 1-596): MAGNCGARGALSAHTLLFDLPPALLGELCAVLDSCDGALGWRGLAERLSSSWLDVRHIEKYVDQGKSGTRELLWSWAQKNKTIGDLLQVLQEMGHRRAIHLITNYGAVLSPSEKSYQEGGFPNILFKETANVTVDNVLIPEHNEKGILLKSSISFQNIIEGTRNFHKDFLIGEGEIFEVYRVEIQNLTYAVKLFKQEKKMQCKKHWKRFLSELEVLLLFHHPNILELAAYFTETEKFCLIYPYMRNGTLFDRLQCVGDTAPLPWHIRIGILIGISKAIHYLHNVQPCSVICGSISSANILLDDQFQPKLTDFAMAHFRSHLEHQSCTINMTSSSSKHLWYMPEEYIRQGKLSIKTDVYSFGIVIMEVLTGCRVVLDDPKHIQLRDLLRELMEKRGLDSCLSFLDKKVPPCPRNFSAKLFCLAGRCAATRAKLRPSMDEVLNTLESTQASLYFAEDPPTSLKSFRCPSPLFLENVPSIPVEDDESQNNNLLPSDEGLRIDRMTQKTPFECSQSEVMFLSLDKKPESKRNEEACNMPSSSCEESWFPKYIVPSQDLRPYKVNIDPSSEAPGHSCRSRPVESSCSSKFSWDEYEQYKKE
Method: Example B2. IRAK Endogenous HTRF Degradation Assay
Cells (~50k) were plated in Cisbio 96-well low volume white plates (Cisbio: cat #66PL96005). Compounds were dissolved in DMSO and a 3-fold serial dilution was performed using a TECAN D300E. Cells were incubated with the compound overnight. Total-IRAK3 HTRF kit from Cisbio was used for degradation analysis (Cisbio: 63ADK101PEH). Cryptate and D2 antibodies were diluted in Detection buffer as per manufacturers recommendation. Then 2 μL of each solution was added to 16 μL lysate. Buffer control (lysis buffer detection buffer), Cryptate control (lysis buffer+cryptate antibody+detection buffer), and Negative control (lysis buffer+cryptate antibody+D2 antibody) were made as per manufacturers recommendation. Post incubation with antibodies the HTRF signal was measured using a Perkin Elmer Envision reader and the HTRF signal was calculated using formula: (Emission at 665 nm/Emission at 615 nm)*10,000. All HTRF values were normalized to the average value of DMSO. The average value of the DMSO control wells were set to equal 100% of the relative IRAK3 protein levels. Normalized luminescence values were plotted on a graph as a function of compound concentration. Compound concentration was plotted on the x-axis and the corresponding normalized IRAK3 protein levels on the y-axis. The EC50 value (the half-maximum effective concentration) of a compound for the degradation of the IRAK3 was calculated using a four-parameter logistic model (sigmoidal dose-response model) (FIT=(A+{(B−A)/1+[(C/x)D]})) where C is the inflection point (EC50), D is the […], and A and B are the low and high limits of the fit, respectively). The Ymin was calculated by determining the lowest percentage of target protein remaining following compound treatment. Dmax was calculated from Ymin (% Dmax=100−Ymin).
Using these assays, IC50, Dmax, EC50, and DC50 values of the following compounds were determined. Dmax is defined as the maximum percent degradation achieved and DC50 is the concentration at which 50% degradation is achieved.

| Dmax | SMILES |
| --- | --- |
| 37% | C[C@@H](Oc1cc(-c2cnn(C3CCN(CCOCCOCCNC(=O)COc4cccc5c4C(=O)N(C4CCC(=O)NC4=O)C5=O)CC3)c2)cnc1N)c1c(Cl)ccc(F)c1Cl (stereo partly drawn) [Compound 10, N-(2-(2-(2-(4-(4-(6-amino-5-((R)-1-(2,6-dichloro-3-fluorophenyl)ethoxy)pyridin-3-yl)-1H-pyrazol-1-yl)piperidin-1-yl)ethoxy)ethoxy)ethyl)-2-((2-(2,6-dioxopiperidin-3-yl)-1,3-dioxoisoindolin-4-yl)oxy)acetamide] |
| 3% | C[C@@H](Oc1cc(-c2cnn(C3CCN(CCOCCNC(=O)COc4ccc5c(c4)C(=O)N(C4CCC(=O)NC4=O)C5=O)CC3)c2)cnc1N)c1c(Cl)ccc(F)c1Cl (stereo partly drawn) [Compound 14, N-(2-(2-(4-(4-(6-amino-5-((R)-1-(2,6-dichloro-3-fluorophenyl)ethoxy)pyridin-3-yl)-1H-pyrazol-1-yl)piperidin-1-yl)ethoxy)ethyl)-2-((2-(2,6-dioxopiperidin-3-yl)-1,3-dioxoisoindolin-5-yl)oxy)acetamide] |
| 73% | C[C@@H](Oc1cc(-c2cnn(C3CCN(C4CCC5(CC4)CCN(C(=O)c4ccc6c(c4)C(=O)N(C4CCC(=O)NC4=O)C6=O)CC5)CC3)c2)cnc1N)c1c(Cl)ccc(F)c1Cl (stereo partly drawn) [Compound 18, 5-(9-(4-(4-(6-amino-5-((R)-1-(2,6-dichloro-3-fluorophenyl)ethoxy)pyridin-3-yl)-1H-pyrazol-1-yl)piperidin-1-yl)-3-azaspiro[5.5]undecane-3-carbonyl)-2-(2,6-dioxopiperidin-3-yl)isoindoline-1,3-dione] |
| 42% | C[C@@H](Oc1cc(-c2cnn(C3CCN(C4CCC5(CC4)CCN(C(=O)c4ccc6c(c4)C(=O)N(C4CCC(=O)NC4=O)C6)CC5)CC3)c2)cnc1N)c1c(Cl)ccc(F)c1Cl (stereo partly drawn) [Compound 19, 3-(6-(9-(4-(4-(6-amino-5-((R)-1-(2,6-dichloro-3-fluorophenyl)ethoxy)pyridin-3-yl)-1H-pyrazol-1-yl)piperidin-1-yl)-3-azaspiro[5.5]undecane-3-carbonyl)-1-oxoisoindolin-2-yl)piperidine-2,6-dione] |
| 37% | C[C@@H](Oc1cc(-c2cnn(C3CCN(CCNC(=O)COc4cccc5c4C(=O)N(C4CCC(=O)NC4=O)C5=O)CC3)c2)cnc1N)c1c(Cl)ccc(F)c1Cl (stereo partly drawn) [Compound 8, N-(2-(4-(4-(6-amino-5-((R)-1-(2,6-dichloro-3-fluorophenyl)ethoxy)pyridin-3-yl)-1H-pyrazol-1-yl)piperidin-1-yl)ethyl)-2-((2-(2,6-dioxopiperidin-3-yl)-1,3-dioxoisoindolin-4-yl)oxy)acetamide] |
| 33% | C[C@@H](Oc1cc(-c2cnn(C3CCN(CCOCCOCCOCCOCCNC(=O)COc4cccc5c4C(=O)N(C4CCC(=O)NC4=O)C5=O)CC3)c2)cnc1N)c1c(Cl)ccc(F)c1Cl (stereo partly drawn) [Compound 12, N-(14-(4-(4-(6-amino-5-((R)-1-(2,6-dichloro-3-fluorophenyl)ethoxy)pyridin-3-yl)-1H-pyrazol-1-yl)piperidin-1-yl)-3,6,9,12-tetraoxatetradecyl)-2-((2-(2,6-dioxopiperidin-3-yl)-1,3-dioxoisoindolin-4-yl)oxy)acetamide] |
| 50% | Cc1ncsc1-c1ccc(CNC(=O)[C@@H]2C[C@@H](O)CN2C(=O)[C@@H](NC(=O)COCCOCCOCCOCCOCCOCCOCCN2CCC(n3cc(-c4cnc(N)c(O[C@H](C)c5c(Cl)ccc(F)c5Cl)c4)cn3)CC2)C(C)(C)C)cc1 [Compound 7, (2S,4R)-1-((S)-26-(4-(4-(6-amino-5-((R)-1-(2,6-dichloro-3-fluorophenyl)ethoxy)pyridin-3-yl)-1H-pyrazol-1-yl)piperidin-1-yl)-2-(tert-butyl)-4-oxo-6,9,12,15,18,21,24-heptaoxa-3-azahexacosanoyl)-4-hydroxy-N-(4-(4-methylthiazol-5-yl)benzyl)pyrrolidine-2-carboxamide] |
| 32% | C[C@@H](Oc1cc(-c2cnn(C3CCN(CCOCCOCCOCCOCCNC(=O)COc4ccc5c(c4)C(=O)N(C4CCC(=O)NC4=O)C5=O)CC3)c2)cnc1N)c1c(Cl)ccc(F)c1Cl (stereo partly drawn) [Compound 17, N-(14-(4-(4-(6-amino-5-((R)-1-(2,6-dichloro-3-fluorophenyl)ethoxy)pyridin-3-yl)-1H-pyrazol-1-yl)piperidin-1-yl)-3,6,9,12-tetraoxatetradecyl)-2-((2-(2,6-dioxopiperidin-3-yl)-1,3-dioxoisoindolin-5-yl)oxy)acetamide] |
| 56% | Cc1ncsc1-c1ccc(CNC(=O)[C@@H]2C[C@@H](O)CN2C(=O)[C@@H](NC(=O)COCCOCCOCCOCCOCCOCCN2CCC(n3cc(-c4cnc(N)c(O[C@H](C)c5c(Cl)ccc(F)c5Cl)c4)cn3)CC2)C(C)(C)C)cc1 [Compound 6, (2S,4R)-1-((S)-23-(4-(4-(6-amino-5-((R)-1-(2,6-dichloro-3-fluorophenyl)ethoxy)pyridin-3-yl)-1H-pyrazol-1-yl)piperidin-1-yl)-2-(tert-butyl)-4-oxo-6,9,12,15,18,21-hexaoxa-3-azatricosanoyl)-4-hydroxy-N-(4-(4-methylthiazol-5-yl)benzyl)pyrrolidine-2-carboxamide] |
| 20% | C[C@@H](Oc1cc(-c2cnn(C3CCN(CCOCCOCCNC(=O)COc4ccc5c(c4)C(=O)N(C4CCC(=O)NC4=O)C5=O)CC3)c2)cnc1N)c1c(Cl)ccc(F)c1Cl (stereo partly drawn) [Compound 15, N-(2-(2-(2-(4-(4-(6-amino-5-((R)-1-(2,6-dichloro-3-fluorophenyl)ethoxy)pyridin-3-yl)-1H-pyrazol-1-yl)piperidin-1-yl)ethoxy)ethoxy)ethyl)-2-((2-(2,6-dioxopiperidin-3-yl)-1,3-dioxoisoindolin-5-yl)oxy)acetamide] |
| 81% | C[C@@H](Oc1cc(-c2cnn(C3CCN(C4CCC5(CC4)CCN(C(=O)c4cccc(NC6CCC(=O)NC6=O)c4)CC5)CC3)c2)cnc1N)c1c(Cl)ccc(F)c1Cl (stereo partly drawn) [Compound 22, 3-((3-(9-(4-(4-(6-Amino-5-((R)-1-(2,6-dichloro-3-fluorophenyl)ethoxy)pyridin-3-yl)-1H-pyrazol-1-yl)piperidin-1-yl)-3-azaspiro[5.5]undecane-3-carbonyl)phenyl)amino)piperidine-2,6-dione] |
| 25% | C[C@@H](Oc1cc(-c2cnn(C3CCN(CCOCCOCCOCCNC(=O)COc4ccc5c(c4)C(=O)N(C4CCC(=O)NC4=O)C5=O)CC3)c2)cnc1N)c1c(Cl)ccc(F)c1Cl (stereo partly drawn) [Compound 16, N-(2-(2-(2-(2-(4-(4-(6-amino-5-((R)-1-(2,6-dichloro-3-fluorophenyl)ethoxy)pyridin-3-yl)-1H-pyrazol-1-yl)piperidin-1-yl)ethoxy)ethoxy)ethoxy)ethyl)-2-((2-(2,6-dioxopiperidin-3-yl)-1,3-dioxoisoindolin-5-yl)oxy)acetamide] |
| 38% | C[C@@H](Oc1cc(-c2cnn(C3CCN(CCOCCOCCOCCNC(=O)COc4cccc5c4C(=O)N(C4CCC(=O)NC4=O)C5=O)CC3)c2)cnc1N)c1c(Cl)ccc(F)c1Cl (stereo partly drawn) [Compound 11, N-(2-(2-(2-(2-(4-(4-(6-amino-5-((R)-1-(2,6-dichloro-3-fluorophenyl)ethoxy)pyridin-3-yl)-1H-pyrazol-1-yl)piperidin-1-yl)ethoxy)ethoxy)ethoxy)ethyl)-2-((2-(2,6-dioxopiperidin-3-yl)-1,3-dioxoisoindolin-4-yl)oxy)acetamide] |
| 68% | C[C@@H](Oc1cc(-c2cnn(C3CCN(C4CCC5(CC4)CCN(C(=O)c4cccc6c4CN(C4CCC(=O)NC4=O)C6=O)CC5)CC3)c2)cnc1N)c1c(Cl)ccc(F)c1Cl (stereo partly drawn) [Compound 21, 3-(4-(9-(4-(4-(6-amino-5-((R)-1-(2,6-dichloro-3-fluorophenyl)ethoxy)pyridin-3-yl)-1H-pyrazol-1-yl)piperidin-1-yl)-3-azaspiro[5.5]undecane-3-carbonyl)-1-oxoisoindolin-2-yl)piperidine-2,6-dione] |

Source: patent US20260234124A1, “Substituted Pyrazolyl-Pyridinyl Compounds as Ligand Directed Degraders of IRAK3” (Celgene Corporation, priority 2022, published 2026)
